Measurements published in paper PMC8587071, “Utilization of Sodium Nitroprusside as an Intestinal Permeation Enhancer for Lipophilic Drug Absorption Improvement in the Rat Proximal Intestine” (Molecules, 2021).

Columns and labels:
[1] = in vitro sac permeation study, rat duodenum; conditions: male, Wistar, rat, 200 μM test compound
Method: (§1) Animal experimental protocols (approval codes: P18-30, P19-09, and P20-14) were carried out in accordance with the Ethical Committee of Tokyo University of Pharmacy and Life Sciences. Male Wistar rats (8 weeks old) were obtained from Tokyo Laboratory Animals Science Co., Ltd. (Tokyo, Japan). Permeation studies of lipophilic drugs were carried out using the in vitro sac method, as previously described.
(§2) Based on these concentrations, the apparent permeability coefficients (Papp) of each test compound were calculated according to the following Equation (1):(1) Pappcm/s=dQ/dt×1/C0S where: • dQ/dt—the flux of the test compound in the serosal side, • C0—the initial concentration in the mucosal side, • S—the surface area of the intestinal lumen.

rat duodenum = test: in vitro sac permeation study, rat duodenum; conditions: for Papp Ratio (SNP/CTRL): SNP 3 mM pretreatment
Method: as §1, §2

rat colon = test: in vitro sac permeation study, rat colon; conditions: SNP 3 mM pretreatment
Method: (§3) Animal experimental protocols (approval codes: P18-30, P19-09, and P20-14) were carried out in accordance with the Ethical Committee of Tokyo University of Pharmacy and Life Sciences. Male Wistar rats (8 weeks old) were obtained from Tokyo Laboratory Animals Science Co., Ltd. (Tokyo, Japan). Permeation studies of lipophilic drugs were carried out using the in vitro sac method, as previously described. […] The serosal samples were collected at 0, 10, 20, 30, 40, 60, 90, and 120 min after administration, and analyzed using a reversed-phase HPLC system (LC-2000Plus; JASCO Co., Tokyo, Japan) or fluorescence microplate reader to determine the concentration of each test compound [15].
as §2

[2] = in vitro sac permeation study, rat colon; conditions: male, Wistar, rat, 200 μM test compound
Method: as §3, §2

rat ileum = test: in vitro sac permeation study, rat ileum; conditions: SNP 3 mM pretreatment
Method: as §3, §2

[3] = in vitro sac permeation study, rat ileum; conditions: male, Wistar, rat, 200 μM test compound
Method: as §3, §2

[4] = in vitro sac permeation study, rat jejunum; conditions: male, Wistar, rat, 200 μM test compound
Method: as §3, §2

rat jejunum = test: in vitro sac permeation study, rat jejunum; conditions: SNP 3 mM pretreatment
Method: as §3, §2

[5] = Papp SNP, pretreated with SNP 3 mM for 60 min

Compound | Papp at 120 min, 200 μM ([1]; Papp CTRL, SNP-untreated) | Papp at 120 min, 200 μM [1, 5] | Papp Ratio (SNP/CTRL) (rat duodenum) | Papp Ratio (SNP/CTRL) (rat colon) | Papp at 120 min, 200 μM ([2]; Papp CTRL, SNP-untreated) | Papp at 120 min, 200 μM [2, 5] | Papp Ratio (SNP/CTRL) (rat ileum) | Papp at 120 min, 200 μM ([3]; Papp CTRL, SNP-untreated) | Papp at 120 min, 200 μM [3, 5] | Papp at 120 min, 200 μM ([4]; Papp CTRL, SNP-untreated) | Papp at 120 min, 200 μM [4, 5] | Papp Ratio (SNP/CTRL) (rat jejunum) | effect on the SNP enhancement of griseofulvin permeability (rat duodenum; DTT 10 mM for 10 min before SNP 3 mM) | effect of pretreatment on flurbiprofen permeation (rat duodenum; SNP 3 mM 60 min, DTT 10 mM 10 min) | effect of pretreatment on griseofulvin permeation (rat duodenum; SNP or SFC 3 mM 60 min, DTT 10 mM 10 min) | effect on the SNP enhancement of griseofulvin permeability (rat duodenum; c-PTIO 1 mM co-pre-treated with SNP 3 mM) | effect on the SNP-increased FD-4 permeation (rat duodenum; c-PTIO 1 mM with SNP 3 mM)
COC1=CC(=O)C[C@@H](C)[C@]12Oc1c(Cl)c(OC)cc(OC)c1C2=O [Griseofulvin] | 8 ± 4.2 ×10⁻⁶ cm/s | 19.6 ± 4.1 ×10⁻⁶ cm/s | 2.45 | 0.80 | 39.6 ± 21.4 ×10⁻⁶ cm/s | 31.7 ± 11.1 ×10⁻⁶ cm/s | 0.76 | 24.3 ± 6 ×10⁻⁶ cm/s | 18.4 ± 4.4 ×10⁻⁶ cm/s | 42.2 ± 20 ×10⁻⁶ cm/s | 70.3 ± 19.2 ×10⁻⁶ cm/s | 1.67 | – | – | – | – | –
O[C@@H](CS)[C@@H](O)CS (racemic) [DTT, dithiothreitol] | – | – | – | – | – | – | – | – | – | – | – | – | visibly disappeared | increased | increased | – | –
CC1(C)N([O])C(c2ccc(C(=O)O)cc2)=[N+]([O-])C1(C)C [c-PTIO, Carboxy-PTIO] | – | – | – | – | – | – | – | – | – | – | – | – | – | – | – | inhibited | disappeared

More lines, main results first:

Papp at 120 min, 200 μM ([1]; Papp CTRL, SNP-untreated) | Papp at 120 min, 200 μM [1, 5] | Papp Ratio (SNP/CTRL) (rat duodenum) | Papp Ratio (SNP/CTRL) (rat colon) | Papp at 120 min, 200 μM ([2]; Papp CTRL, SNP-untreated) | Papp at 120 min, 200 μM [2, 5] | Papp Ratio (SNP/CTRL) (rat ileum) | Papp at 120 min, 200 μM ([3]; Papp CTRL, SNP-untreated) | Papp at 120 min, 200 μM [3, 5] | Papp at 120 min, 200 μM ([4]; Papp CTRL, SNP-untreated) | Papp at 120 min, 200 μM [4, 5] | Papp Ratio (SNP/CTRL) (rat jejunum) | effect on the SNP enhancement of griseofulvin permeability (rat duodenum; DTT 10 mM for 10 min before SNP 3 mM) | effect of pretreatment on flurbiprofen permeation (rat duodenum; SNP 3 mM 60 min, DTT 10 mM 10 min) | effect of pretreatment on griseofulvin permeation (rat duodenum; SNP or SFC 3 mM 60 min, DTT 10 mM 10 min) | Compound | effect on the SNP enhancement of griseofulvin permeability (rat duodenum; c-PTIO 1 mM co-pre-treated with SNP 3 mM) | effect on the SNP-increased FD-4 permeation (rat duodenum; c-PTIO 1 mM with SNP 3 mM)
5.8 ± 1.7 ×10⁻⁶ cm/s | 13 ± 2.7 ×10⁻⁶ cm/s | 2.24 | 0.69 | 28.3 ± 2.5 ×10⁻⁶ cm/s | 19.4 ± 3.7 ×10⁻⁶ cm/s | 1.17 | 33.9 ± 11.3 ×10⁻⁶ cm/s | 39.8 ± 17.7 ×10⁻⁶ cm/s | 26 ± 11.9 ×10⁻⁶ cm/s | 32.7 ± 12.9 ×10⁻⁶ cm/s | 1.26 | – | – | – | CC(C(=O)O)c1ccc(-c2ccccc2)c(F)c1 (centres unmarked) [Flurbiprofen] | – | –
1.1 ± 0.6 ×10⁻⁶ cm/s | 1.3 ± 0.7 ×10⁻⁶ cm/s | 1.18 | 1.67 | 2.1 ± 1.1 ×10⁻⁶ cm/s | 3.5 ± 1.6 ×10⁻⁶ cm/s | 1.05 | 3.7 ± 1 ×10⁻⁶ cm/s | 3.9 ± 1 ×10⁻⁶ cm/s | 4.7 ± 1 ×10⁻⁶ cm/s | 4.3 ± 1.8 ×10⁻⁶ cm/s | 0.91 | – | – | – | CC(C)NCC(O)COc1cccc2ccccc12 (centres unmarked) [Propranolol] | – | –
